# Experimental data: patent publication US11357856B2, “Lipids for delivery of active agents” (Acuitas Therapeutics, Inc., priority 2017, dated 2022)
# Experiments:
# [1] = tested on: luciferase expression in the liver (FLuc mRNA); assay: Luciferase mRNA in vivo evaluation using lipid nanoparticle compositions (liver luciferase expression); design: species or system mice; details: LNP 50/10/38.5/1.5 (PEG-DMA) or 47.5/10/40.8/1.7, tail vein injection, liver 4 hours after administration; for Liver Luc @ 0.3 mg/kg (ng luc/g liver): 0.3 mg mRNA/kg; for Liver Luc @ 1.0 mg/kg (ng luc/g liver): 1.0 mg mRNA/kg; for Liver Luc @ 0.5 mg/kg (ng luc/g liver): 0.5 mg mRNA/kg
# Procedure: Lipid nanoparticles are prepared and tested according to the general procedures described in PCT Pub. Nos. WO 2015/199952 and WO 2017/004143, the full disclosures of which are incorporated herein by reference. Briefly, cationic lipid, DSPC, cholesterol and PEG-lipid are solubilized in ethanol at a molar ratio of about 50:10:38.5:1.5 or about 47.5:10:40.8:1.7. Lipid nanoparticles (LNP) are prepared at a total lipid to mRNA weight ratio of approximately 10:1 to 30:1. The mRNA is diluted to 0.2 mg/mL in 10 to 50 mM citrate or acetate buffer, pH 4. Syringe pumps are used to mix the ethanolic lipid solution with the mRNA aqueous solution at a ratio of about 1:5 to 1:3 (vol/vol) with total flow rates above 15 mL/min. The ethanol is then removed and the external buffer replaced with PBS by dialysis. Finally, the lipid nanoparticles are filtered through a 0.2 μm pore sterile filter. Lipid nanoparticle particle size is approximately 55-95 nm diameter, and in some instances approximately 70-90 nm diameter as determined by quasi-elastic light scattering using a Malvern Zetasizer Nano ZS (Malvern, UK).
# Studies are performed in 6-8 week old female C57BL/6 mice (Charles River) or 8-10 week old CD-1 (Harlan) mice (Charles River) according to guidelines established by an institutional animal care committee (ACC) and the Canadian Council on Animal Care (CCAC). Varying doses of mRNA-lipid nanoparticle are systemically administered by tail vein injection and animals euthanized at a specific time point (e.g., 4 hours) post-administration. Liver and spleen are collected in pre-weighed tubes, weights determined, immediately snap frozen in liquid nitrogen and stored at −80° C. until processing for analysis.
# For liver, approximately 50 mg is dissected for analyses in a 2 mL FastPrep tubes (MP Biomedicals, Solon Ohio). ¼″ ceramic sphere (MP Biomedicals) is added to each tube and 500 μL of Glo Lysis Buffer—GLB (Promega, Madison Wis.) equilibrated to room temperature is added to liver tissue. Liver tissues are homogenized with the FastPrep24 instrument (MP Biomedicals) at 2×6.0 m/s for 15 seconds. Homogenate is incubated at room temperature for 5 minutes prior to a 1:4 dilution in GLB and assessed using SteadyGlo Luciferase assay system (Promega). Specifically, 50 μL of diluted tissue homogenate is reacted with 50 μL of SteadyGlo substrate, shaken for 10 seconds followed by 5 minute incubation and then quantitated using a CentroXS^3 LB 960 luminometer (Berthold Technologies, Germany). The amount of protein assayed is determined by using the BCA protein assay kit (Pierce, Rockford Ill.). Relative luminescence units (RLU) are then normalized to total ug protein assayed. To convert RLU to ng luciferase a standard curve is generated with QuantiLum Recombinant Luciferase (Promega).
# The FLuc mRNA (L-6107 or L-7202) from Trilink Biotechnologies will express a luciferase protein, originally isolated from the firefly, photinus pyralis. FLuc is commonly used in mammalian cell culture to measure both gene expression and cell viability. It emits bioluminescence in the presence of the substrate, luciferin. This capped and polyadenylated mRNA is fully substituted with respect to uridine and/or cytidine nucleosides.
# The cationic lipids shown in Table 2 have previously been tested with nucleic acids. For comparative purposes, these lipids were also used to formulate lipid nanoparticles containing the FLuc mRNA (L-6107) using an in line mixing method, as described in Example 1 and in PCT/US10/22614, which is hereby incorporated by reference in its entirety. Lipid nanoparticles were formulated using the following molar ratio: 50% Cationic lipid/10% distearoylphosphatidylcholine (DSPC)/38.5% Cholesterol/1.5% PEG lipid (“PEG-DMG”, i.e., 1-(monomethoxy-polyethyleneglycol)-2,3-dimyristoylglycerol, with an average PEG molecular weight of 2000). In alternate embodiments, cationic lipid, DSPC, cholesterol and PEG-lipid are formulated at a molar ratio of approximately 47.5:10:40.8:1.7. […]
# [2] = Determination of pKa of formulated lipids (TNS fluorescence assay in lipid nanoparticles); format: physicochemical; details: cationic lipid formulated in lipid nanoparticles (cationic lipid/DSPC/cholesterol/PEG-lipid 50/10/38.5/1.5 mol %); pH of half-maximal TNS fluorescence
# Procedure: As described elsewhere, the pKa of formulated cationic lipids is correlated with the effectiveness of LNPs for delivery of nucleic acids (see Jayaraman et al, Angewandte Chemie, International Edition (2012), 51(34), 8529-8533; Semple et al, Nature Biotechnology 28, 172-176 (2010)). The preferred range of pKa is ˜5 to ˜7. […] Lipid nanoparticles comprising cationic lipid/DSPC/cholesterol/PEG-lipid (50/10/38.5/1.5 mol %) in PBS at a concentration of 0.4 mM total lipid are prepared using the in-line process as described in Example 1. TNS is prepared as a 100 μM stock solution in distilled water. Vesicles are diluted to 24 μM lipid in 2 mL of buffered solutions containing, 10 mM HEPES, 10 mM MES, 10 mM ammonium acetate, 130 mM NaCl, where the pH ranged from 2.5 to 11. An aliquot of the TNS solution is added to give a final concentration of 1 μM and following vortex mixing fluorescence intensity is measured at room temperature in a SLM Aminco Series 2 Luminescence Spectrophotometer using excitation and emission wavelengths of 321 nm and 445 nm. A sigmoidal best fit analysis is applied to the fluorescence data and the pKa was measured as the pH giving rise to half-maximal fluorescence intensity.
pKa [2],SMILES,Liver Luc @ 0.3 mg/kg (ng luc/g liver) [1] [ng luc/g liver],Liver Luc @ 1.0 mg/kg (ng luc/g liver) [1] [ng luc/g liver],Liver Luc @ 0.5 mg/kg (ng luc/g liver) [1] [ng luc/g liver]
5.55,CCCCCCCCC(CCCCCC)CN(CCCCN(C)C)CC(CCCCCC)CCCCCCCC (stereo not drawn) [Compound 4],87 ± 11,233 ± 121,–
5.77,CCCCCCCCC(CCCCCC)CN(CCCCCN(C)C)CC(CCCCCC)CCCCCCCC (stereo not drawn) [Compound 5],2840 ± 757,13739 ± 7631,–
5.91,CCCCCCCCC(CCCCCC)CN(CCCCCCN(C)C)CC(CCCCCC)CCCCCCCC (stereo not drawn) [Compound 15],–,–,2417 ± 833
5.87,CCCCCCCCC(CCCCCC)CN(CCCCCN(CCO)CCO)CC(CCCCCC)CCCCCCCC (stereo not drawn) [Compound 16],–,–,52 ± 26
6.49,CCCCCCCCC(CCCCCC)CN(CCCNC)CC(CCCCCC)CCCCCCCC (stereo not drawn) [Compound 17],–,–,12 ± 5
